Data: EP0198522A1, “Heterocyclic herbicides” (SHELL INTERNATIONALE RESEARCH MAATSCHAPPIJ B.V., priority 1985, dated 1986)

How the values were obtained:
Assay type in all cases: in vivo
[1] = test system: barnyard grass, Echinochloa crusgalli; assay: Herbicidal activity, post-emergence soil drench test; conditions: 10 kg/ha soil drench; assessed visually thirteen days after drenching; 0-9 scale, 0 = growth as untreated control, 9 = death
Method: (§1) To evaluate their herbicidal activity, compounds according to the invention were tested using as representative range of plants: maize, Zea mays (Mz); rice, Oryza sativa (R); barnyard grass, Echinochloa crusgalli (BG); oat, Avena sativa (0); linseed, Linum usitatissisum (L); mustard, Sinapsis alba (M); sugar beet, Beta vulgaris (SB) and soya bean, Glycine max (S).
(§2) The tests fall into two categories, pre-emergence and post-emergence. […] The post-emergence tests involved two types of test, viz., soil drench and foliar spray tests. In the soil drench tests the soil in which the seedling plants of the above species were growing was drenched with a liquid formulation containing a compound of the invention, and in the foliar spray tests the seedling plants were sprayed with such a formulation.
(§3) The soil used in the tests was a prepared horticultural loam.
(§4) These acetone solutions were diluted with water and the resulting formulations applied at dosage levels corresponding to 5 kg or 1 kg of active material per hectare in a volume equivalent to 600 litres per hectare in the soil spray and foliar spray test, and at a dosage of level equivalent to 10 kilograms of active material per hectare in a volume equivalent to approximately 3,000 litres per hectare in the soil drench tests.
(§5) In the pre-emexgence tests untreated sown soil and in the post-emergence tests untreated soil bearing seedling plants were used as controls.
(§6) The herbicidal effects of the test compounds were assessed visually twelve days after spraying the foliage and the soil, and thirteen days after drenching the soil and were recorded on a 0-9 scale. A rating 0 indicates growth as untreated control, a rating 9 indicates death. An increase of 1 unit on the linear scale approximates to a 10% increase in the level of effect.

[2] = test system: linseed, Linum usitatissisum; assay: as above; conditions: 10 kg/ha soil drench; assessed visually thirteen days after drenching; 0-9 scale, 0 = growth as untreated control, 9 = death
Method: as §1, §2, §3, §4, §5, §6

maize, Zea mays [3] = assay: as above; conditions: 10 kg/ha soil drench; assessed visually thirteen days after drenching; 0-9 scale, 0 = growth as untreated control, 9 = death
Method: as §1, §2, §3, §4, §5, §6

mustard, Sinapsis alba [4] = assay: as above; conditions: 10 kg/ha soil drench; assessed visually thirteen days after drenching; 0-9 scale, 0 = growth as untreated control, 9 = death
Method: as §1, §2, §3, §4, §5, §6

oat, Avena sativa [5] = assay: as above; conditions: 10 kg/ha soil drench; assessed visually thirteen days after drenching; 0-9 scale, 0 = growth as untreated control, 9 = death
Method: as §1, §2, §3, §4, §5, §6

rice, Oryza sativa [6] = assay: as above; conditions: 10 kg/ha soil drench; assessed visually thirteen days after drenching; 0-9 scale, 0 = growth as untreated control, 9 = death
Method: as §1, §2, §3, §4, §5, §6

soya bean, Glycine max [7] = assay: as above; conditions: 10 kg/ha soil drench; assessed visually thirteen days after drenching; 0-9 scale, 0 = growth as untreated control, 9 = death
Method: as §1, §2, §3, §4, §5, §6

[8] = test system: sugar beet, Beta vulgaris; assay: as above; conditions: 10 kg/ha soil drench; assessed visually thirteen days after drenching; 0-9 scale, 0 = growth as untreated control, 9 = death
Method: as §1, §2, §3, §4, §5, §6

[9] = test system: barnyard grass, Echinochloa crusgalli; assay: Herbicidal activity, post-emergence foliar spray test; conditions: assessed visually twelve days after spraying, 0-9 scale, 0 = growth as untreated control, 9 = death
Method: as §1, §2, §3, §4, §5, §6

[10] = test system: linseed, Linum usitatissisum; assay: as above; conditions: assessed visually twelve days after spraying, 0-9 scale, 0 = growth as untreated control, 9 = death
Method: as §1, §2, §3, §4, §5, §6

maize, Zea mays [11] = assay: as above; conditions: assessed visually twelve days after spraying, 0-9 scale, 0 = growth as untreated control, 9 = death
Method: as §1, §2, §3, §4, §5, §6

mustard, Sinapsis alba [12] = assay: as above; conditions: assessed visually twelve days after spraying, 0-9 scale, 0 = growth as untreated control, 9 = death
Method: as §1, §2, §3, §4, §5, §6

oat, Avena sativa [13] = assay: as above; conditions: assessed visually twelve days after spraying, 0-9 scale, 0 = growth as untreated control, 9 = death
Method: as §1, §2, §3, §4, §5, §6

rice, Oryza sativa [14] = assay: as above; conditions: assessed visually twelve days after spraying, 0-9 scale, 0 = growth as untreated control, 9 = death
Method: as §1, §2, §3, §4, §5, §6

soya bean, Glycine max [15] = assay: as above; conditions: assessed visually twelve days after spraying, 0-9 scale, 0 = growth as untreated control, 9 = death
Method: as §1, §2, §3, §4, §5, §6

[16] = test system: sugar beet, Beta vulgaris; assay: as above; conditions: assessed visually twelve days after spraying, 0-9 scale, 0 = growth as untreated control, 9 = death
Method: as §1, §2, §3, §4, §5, §6

[17] = test system: barnyard grass, Echinochloa crusgalli; assay: Herbicidal activity, pre-emergence test (soil spray); conditions: assessed visually twelve days after spraying, 0-9 scale, 0 = growth as untreated control, 9 = death
Method: as §1, §2, §3, §4, §5, §6

[18] = test system: linseed, Linum usitatissisum; assay: as above; conditions: assessed visually twelve days after spraying, 0-9 scale, 0 = growth as untreated control, 9 = death
Method: as §1, §2, §3, §4, §5, §6

maize, Zea mays [19] = assay: as above; conditions: assessed visually twelve days after spraying, 0-9 scale, 0 = growth as untreated control, 9 = death
Method: as §1, §2, §3, §4, §5, §6

mustard, Sinapsis alba [20] = assay: as above; conditions: assessed visually twelve days after spraying, 0-9 scale, 0 = growth as untreated control, 9 = death
Method: as §1, §2, §3, §4, §5, §6

oat, Avena sativa [21] = assay: as above; conditions: assessed visually twelve days after spraying, 0-9 scale, 0 = growth as untreated control, 9 = death
Method: as §1, §2, §3, §4, §5, §6

rice, Oryza sativa [22] = assay: as above; conditions: assessed visually twelve days after spraying, 0-9 scale, 0 = growth as untreated control, 9 = death
Method: as §1, §2, §3, §4, §5, §6

soya bean, Glycine max [23] = assay: as above; conditions: assessed visually twelve days after spraying, 0-9 scale, 0 = growth as untreated control, 9 = death
Method: as §1, §2, §3, §4, §5, §6

[24] = test system: sugar beet, Beta vulgaris; assay: as above; conditions: assessed visually twelve days after spraying, 0-9 scale, 0 = growth as untreated control, 9 = death
Method: as §1, §2, §3, §4, §5, §6

CC(C)C1(C)NC(c2nc3cc4c(cc3cc2C(=O)[O-])OCO4)=NC1=O.[Na+] (stereo not shown) [Example 4, Sodivmt-2-(5-isopropyl-5-methyl-4-oxo-2-imidazolin-2-yl)-[1,3]-dioxolo[4,5-g] quinoline-3-carboxylic acid (salt)]
Soil drench 10/kg/ha BG (herbicidal effect rating) [1]: 8 | Soil drench 10/kg/ha L (herbicidal effect rating) [2]: 6 | Soil drench 10/kg/ha Mz (herbicidal effect rating) (maize, Zea mays [3]): 5 | Soil drench 10/kg/ha M (herbicidal effect rating) (mustard, Sinapsis alba [4]): 8 | Soil drench 10/kg/ha O (herbicidal effect rating) (oat, Avena sativa [5]): 4 | Soil drench 10/kg/ha R (herbicidal effect rating) (rice, Oryza sativa [6]): 5 | Soil drench 10/kg/ha S (herbicidal effect rating) (soya bean, Glycine max [7]): 6 | Soil drench 10/kg/ha SB (herbicidal effect rating) [8]: 8 | Foliar spray BG (herbicidal effect rating) ([9]; Dosage 1 kg/ha): 7 | Foliar spray BG (herbicidal effect rating) ([9]; Dosage 5 kg/ha): 8 | Foliar spray L (herbicidal effect rating) ([10]; Dosage 1 kg/ha): 6 | Foliar spray L (herbicidal effect rating) ([10]; Dosage 5 kg/ha): 6 | Foliar spray Mz (herbicidal effect rating) (maize, Zea mays [11]; Dosage 1 kg/ha): 4 | Foliar spray Mz (herbicidal effect rating) (maize, Zea mays [11]; Dosage 5 kg/ha): 6 | Foliar spray M (herbicidal effect rating) (mustard, Sinapsis alba [12]; Dosage 1 kg/ha): 8 | Foliar spray M (herbicidal effect rating) (mustard, Sinapsis alba [12]; Dosage 5 kg/ha): 8 | Foliar spray O (herbicidal effect rating) (oat, Avena sativa [13]; Dosage 1 kg/ha): 4 | Foliar spray O (herbicidal effect rating) (oat, Avena sativa [13]; Dosage 5 kg/ha): 4 | Foliar spray R (herbicidal effect rating) (rice, Oryza sativa [14]; Dosage 1 kg/ha): 4 | Foliar spray R (herbicidal effect rating) (rice, Oryza sativa [14]; Dosage 5 kg/ha): 4 | Foliar spray S (herbicidal effect rating) (soya bean, Glycine max [15]; Dosage 1 kg/ha): 2 | Foliar spray S (herbicidal effect rating) (soya bean, Glycine max [15]; Dosage 5 kg/ha): 3 | Foliar spray SB (herbicidal effect rating) ([16]; Dosage 1 kg/ha): 7 | Foliar spray SB (herbicidal effect rating) ([16]; Dosage 5 kg/ha): 8 | Pre-emergence BG (herbicidal effect rating) ([17]; Dosage 1 kg/ha): 8 | Pre-emergence BG (herbicidal effect rating) ([17]; Dosage 5 kg/ha): 8 | Pre-emergence L (herbicidal effect rating) ([18]; Dosage 1 kg/ha): 8 | Pre-emergence L (herbicidal effect rating) ([18]; Dosage 5 kg/ha): 9 | Pre-emergence Mz (herbicidal effect rating) (maize, Zea mays [19]; Dosage 1 kg/ha): 8 | Pre-emergence Mz (herbicidal effect rating) (maize, Zea mays [19]; Dosage 5 kg/ha): 8 | Pre-emergence M (herbicidal effect rating) (mustard, Sinapsis alba [20]; Dosage 1 kg/ha): 7 | Pre-emergence M (herbicidal effect rating) (mustard, Sinapsis alba [20]; Dosage 5 kg/ha): 7 | Pre-emergence O (herbicidal effect rating) (oat, Avena sativa [21]; Dosage 1 kg/ha): 5 | Pre-emergence O (herbicidal effect rating) (oat, Avena sativa [21]; Dosage 5 kg/ha): 6 | Pre-emergence R (herbicidal effect rating) (rice, Oryza sativa [22]; Dosage 1 kg/ha): 8 | Pre-emergence R (herbicidal effect rating) (rice, Oryza sativa [22]; Dosage 5 kg/ha): 9 | Pre-emergence S (herbicidal effect rating) (soya bean, Glycine max [23]; Dosage 1 kg/ha): 2 | Pre-emergence S (herbicidal effect rating) (soya bean, Glycine max [23]; Dosage 5 kg/ha): 5 | Pre-emergence SB (herbicidal effect rating) ([24]; Dosage 1 kg/ha): 8 | Pre-emergence SB (herbicidal effect rating) ([24]; Dosage 5 kg/ha): 8
